Tested on: SW1271 complex spheroids with HUVEC/MSC, growth, % test/control
Assay: Anticancer human tumor SW1271 cell line growth inhibition [AhR];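 note: spheroids exposed to agents for 7 days before readout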
Conditions: for IC50: curve of first compound; for viability, T/C: stronger effect = lower value
Procedure, shortened: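 Complex tumor spheroids co-cultured with HUVEC and human MSC stroma; AhR antagonists tested in combination with standard-of-care and investigational agents. Top concentration at or near clinical Cmax (else 10 microM), half-log dilutions; growth expressed as percent test/control.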

`CC(C)c1c(-c2ccccc2)nc2c(C#N)c[nH]n2c1=O` + Cc1cncc(-c2nc(NCCc3c[nH]c4ccccc34)c3ncn(C(C)C)c3n2)c1 showed an IC50 (second compound 0.1 µM) greater than 10 µM, an IC50 (second compound 0.316 µM) greater than 10 µM and an IC50 (second compound 1 µM) greater than 10 µM. The IC50 (second compound 3.16 µM) was greater than 10 µM, the IC50 (second compound 10 µM) was 0.472 µM and the viability, T/C (second compound 0.1 µM, first compound 0.0316 µM) was 104%. It also gave a viability, T/C (second compound 0.1 µM, first compound 0.1 µM) of 104%, a viability, T/C (second compound 0.1 µM, first compound 0.316 µM) of 96.4% and a viability, T/C (second compound 0.1 µM, first compound 1 µM) of 111%. For the same compound, the viability, T/C (second compound 0.1 µM, first compound 3.16 µM) was 102%, the viability, T/C (second compound 0.1 µM, first compound 10 µM) was 108% and the viability, T/C (second compound 0.316 µM, first compound 0.0316 µM) was 85.2%. It also gave a viability, T/C (second compound 0.316 µM, first compound 0.1 µM) of 121%, a viability, T/C (second compound 0.316 µM, first compound 0.316 µM) of 100% and a viability, T/C (second compound 0.316 µM, first compound 1 µM) of 96.3%. It also gave a viability, T/C (second compound 0.316 µM, first compound 3.16 µM) of 95.9%, a viability, T/C (second compound 0.316 µM, first compound 10 µM) of 106% and a viability, T/C (second compound 1 µM, first compound 0.0316 µM) of 89.5%. It also gave a viability, T/C (second compound 1 µM, first compound 0.1 µM) of 111%, a viability, T/C (second compound 1 µM, first compound 0.316 µM) of 87.6% and a viability, T/C (second compound 1 µM, first compound 1 µM) of 80.2%. For the same compound, the viability, T/C (second compound 1 µM, first compound 3.16 µM) was 87.7%, the viability, T/C (second compound 1 µM, first compound 10 µM) was 82.5% and the viability, T/C (second compound 3.16 µM, first compound 0.0316 µM) was 90.1%. The viability, T/C (second compound 3.16 µM, first compound 0.1 µM) was 93.7%, the viability, T/C (second compound 3.16 µM, first compound 0.316 µM) was 109% and the viability, T/C (second compound 3.16 µM, first compound 1 µM) was 91.5%. It also gave a viability, T/C (second compound 3.16 µM, first compound 3.16 µM) of 99.2%, a viability, T/C (second compound 3.16 µM, first compound 10 µM) of 99.9% and a viability, T/C (second compound 10 µM, first compound 0.0316 µM) of 53.4%. For the same compound, the viability, T/C (second compound 10 µM, first compound 0.1 µM) was 58%, the viability, T/C (second compound 10 µM, first compound 0.316 µM) was 48% and the viability, T/C (second compound 10 µM, first compound 1 µM) was 48.2%. The viability, T/C (second compound 10 µM, first compound 3.16 µM) was 44.8% and the viability, T/C (second compound 10 µM, first compound 10 µM) was 50.4%.
